Tests used:
E. coli IH3080 [1] = assay: Sensitization to rifampin: growth inhibition around wells on LB plates containing rifampin; type: cell-based, Escherichia coli
Method: (§1) From an overnight-grown culture of IH3080 on LB agar, a suspension of approx. 10^8 cells/ml was prepared in 0.9% NaCl. Aliquots of this suspension were then pipetted on the agar plates and the plates were gently shaken to spread the suspension evenly on the entire surface of the plate. Thereafter, the unabsorbed part of the suspension was removed by using a Pasteur pipette. After the surface had dried, small wells (diameter, 2 mm) were drilled on the plates (five wells per plate) by using a sterile sharp-edged narrow metal tube, single-use pipette tip, and vacuum suction. An alternative method used a swab to spread the inoculum. Samples (4 μl and 10 μl) of the peptide solution in 0.9% NaCl (at concentrations of 1 μg/ml and 0.1 μg/ml) were then pipetted to the wells and the sample fluids were allowed to absorb. Controls included 0.9% NaCl solution without the compound to be tested. The plates were then incubated for 18 h at 37° C. whereafter the diameters of growth inhibition zones around each well were measured; the diameter of the well itself was not reduced. Finally, the diameters were converted to surface areas of growth inhibition (in square mm).

E. coli IH3080 [2] = assay: Growth inhibition around wells on LB agar plates; type: cell-based, Escherichia coli
Method: Peptides synthesized in Example 1, all carrying at least two (2) but not more than three (3) positive charges, were studied for their ability to inhibit the growth of E. coli. This was tested employing LB agar (LB Agar Lennox, Difco, BD, Sparks, Md., U.S.A) plates. The indicator organism E. coli IH3080 (K1:O018) was an encapsulated strain originally isolated from a neonate suffering from meningitis (Vaara et al. 1984) and obtained from National Public Health Institute, Helsinki, Finland.
as §1, with “Samples (4 μl and 10 μl) of the peptide solution in 0.9% NaCl (at concentrations of 1 μg/ml and 0.1 μg/ml) were then pipetted to the wells and the sample fluids were allowed to absorb.” left out

[3] = system: Ps. aeruginosa ATCC 27853; assay: Sensitization to rifampin: growth inhibition around wells on LB plates containing rifampin; type: cell-based, Pseudomonas aeruginosa; details: 4 μg
[4] = system: Pseudomonas aeruginosa ATCC 27853; assay: Growth inhibition around wells on LB agar plates; type: cell-based; details: Ps. aeruginosa ATCC 27853
Method: as §1
(§2) Direct antibacterial activity of sixteen NAB compounds against Acinetobacter baumannii ATCC 19606 and Pseudomonas aeruginosa ATCC 27853 was tested by using the susceptibility determination method described in Example 2. Five compounds (NAB7062, NAB734, NAB737, NAB739, and NAB740) had very notable activity against A. baumannii. […] The antibacterial activity of NAB739 and NAB740 were as strong as or even stronger than that of polymyxin B.

A. baumannii ATCC 19606 = assay: Sensitization to rifampin: growth inhibition around wells on LB plates containing rifampin; type: cell-based, Acinetobacter baumannii; details: 4 μg
[5] = system: Acinetobacter baumannii ATCC 19606; assay: Growth inhibition around wells on LB agar plates; type: cell-based; details: A. baumannii ATCC 19606
Method: as §1, with “Samples (4 μl and 10 μl) of the peptide solution in 0.9% NaCl (at concentrations of 1 μg/ml and 0.1 μg/ml) were then pipetted to the wells and the sample fluids were allowed to absorb.” left out
as §2

[6] = 4 μg of compound, rifampin 0 μg/ml
[7] = 4 μg of compound, rifampin 0.1 μg/ml
[8] = 4 μg of compound, rifampin 1.0 μg/ml

Substance	growth inhibition around a well in the presence of rifampin (E. coli IH3080 [1]; [6])	growth inhibition around a well in the presence of rifampin (E. coli IH3080 [1]; [7])	growth inhibition around a well in the presence of rifampin (E. coli IH3080 [1]; [8])	growth inhibition around a well (E. coli IH3080 [2]; 10 μg of compound per well)	growth inhibition around a well in the presence of rifampin ([3]; rifampin 0 μg/ml)	growth inhibition around a well in the presence of rifampin ([3]; rifampin 0.1 μg/ml)	growth inhibition around a well in the presence of rifampin ([3]; rifampin 0.3 μg/ml)	growth inhibition around a well ([4]; 4 μg)	growth inhibition around a well ([4]; 10 μg)	growth inhibition around a well (E. coli IH3080 [2]; 4 μg of compound per well)	growth inhibition around a well in the presence of rifampin (A. baumannii ATCC 19606; rifampin 0 μg/ml)	growth inhibition around a well in the presence of rifampin (A. baumannii ATCC 19606; rifampin 0.1 μg/ml)	growth inhibition around a well in the presence of rifampin (A. baumannii ATCC 19606; rifampin 0.3 μg/ml)	growth inhibition around a well ([5]; 4 μg)	growth inhibition around a well ([5]; 10 μg)	growth inhibition around a well in the presence of rifampin (E. coli IH3080 [1]; 10 μg of compound, rifampin 1.0 μg/ml)
Deacylpolymyxin B [reference compound]	57 square millimeters	79 square millimeters	127 square millimeters	113 square millimeters												
OA-Thr-Abu-cy[Dab-Dab-DLeu-Leu-Dab-Dab-Thr-] [NAB 718]	0 square millimeters	13 square millimeters	133 square millimeters	0 square millimeters	0 square millimeters	0 square millimeters	0 square millimeters	0 square millimeters	0 square millimeters	0 square millimeters	0 square millimeters	0 square millimeters	38 square millimeters	0 square millimeters	0 square millimeters	
OA-Thr-Ser-cy[Dab-Dab-DPhe-Leu-Dab-Dab-Thr-] [NAB 743]	38 square millimeters	133 square millimeters	227 square millimeters	79 square millimeters	28 square millimeters	28 square millimeters	28 square millimeters	28 square millimeters	38 square millimeters	38 square millimeters	0 square millimeters	38 square millimeters	227 square millimeters	0 square millimeters	0 square millimeters	
OA-Thr-Dab-cy[Dab-Abu-DPhe-Leu-Dab-Dab-Thr-] [NAB 715]	0 square millimeters	0 square millimeters	33 square millimeters	0 square millimeters						0 square millimeters						
OA-DAla-DAla-cy[Dab-Dab-DPhe-Leu-Dab-Dab-Thr-] [NAB 733]	0 square millimeters	95 square millimeters	113 square millimeters	0 square millimeters						0 square millimeters						
OA-Abu-cy[Dab-Dab-DPhe-Leu-Dab-Dab-Thr-] [NAB 713]	0 square millimeters	20 square millimeters	38 square millimeters	0 square millimeters						0 square millimeters						
MHA-Abu-Thr-Abu-cy[Dab-Dab-DPhe-Leu-Dab-Dab-Thr-] [NAB 707]	5 square millimeters	87 square millimeters	113 square millimeters	7 square millimeters						5 square millimeters						
OA-Thr-Abu-cy[Dab-Abu-DPhe-Leu-Dab-Dab-Thr-] [NAB 710]	0 square millimeters	7 square millimeters	13 square millimeters	7 square millimeters						0 square millimeters						
OA-Thr-DThr-cy[Dab-Dab-DPhe-Thr-Dab-Dab-Thr-] [NAB 737]	133 square millimeters	177 square millimeters	201 square millimeters		0 square millimeters		20 square millimeters	0 square millimeters	28 square millimeters		38 square millimeters	201 square millimeters	283 square millimeters	38 square millimeters	79 square millimeters	
MHA-Thr-Abu-cy[Dab-Dab-DPhe-Leu-Dab-Dab-Thr-] [NAB 706]	5 square millimeters	79 square millimeters	133 square millimeters	7 square millimeters						5 square millimeters						
MHA-Dab-Thr-Dab-cy[Dab-Dab-DPhe-Leu-Abu-Abu-Thr-] [NAB 721]	0 square millimeters	13 square millimeters	28 square millimeters	0 square millimeters						0 square millimeters						
OA-Thr-Abu-cy[Dab-Dab-DPhe-Leu-Dab-Abu-Thr-] [NAB 709]	0 square millimeters	0 square millimeters	13 square millimeters	0 square millimeters						0 square millimeters						
Deacylcolistin [reference compound]	79 square millimeters	87 square millimeters	127 square millimeters	95 square millimeters												
Polymyxin B heptapeptide [reference compound]	0 square millimeters	0 square millimeters	38 square millimeters	0 square millimeters						0 square millimeters						
OA-Thr-Abu-cy[Dab-Lys-DPhe-Leu-Dab-Dab-Thr-] [NAB 731]	0 square millimeters	0 square millimeters	5 square millimeters	0 square millimeters						0 square millimeters						22 square millimeters

From patent US8329645B2, “Polymyxin derivatives and uses thereof” (priority 2008, dated 2012)
